According to patent US11254706B2, “Peptide and its derivatives capable of inhibiting replication of hepatitis V virus in human adipose-derived stem cells and hepatocytes” (Inno Bio-Drug Development Limited, priority 2015, dated 2022):
Ends that are not written are not given here.

Legend:
[1] = test system: serum-borne HCV (genotype 1b); assay: Replication of serum-borne HCV in hADSC (qRT-PCR of 5′-UTR); assay type: cell-based; conditions: p5 hADSC, peptide 1, 10 and 100 μg/ml (control peptide 100 μg/ml) added 1 h before HCV(+) serum genotype 1b, day 21 post-infection; for viral (5′-UTR) copy numbers in the supernatant: FIG. 1A; for viral (5′-UTR) copy numbers in cell lysates: FIG. 1B
From the text: FIG. 1. […] Data are expressed as mean±SD from 3 experiments. […] Data are expressed as mean±SD from 3 experiments.
We next examined the effect of a peptide composed of 14 amino acids DEAQETAVSSHEQD (SEQ ID NO: 1) (designated as DEA), and its derivatives QETAVSSHEQD (SEQ ID NO: 3) (designated as QET) and DEAQETAVSSHEQ (SEQ ID NO: 2) (designated DEA-Q) as prepared in Example 1, in the replication of serum-borne HCV in hADSC and in human primary hepatocytes. […] (SEQ ID NO: 4)^10. […] In contrast, pretreatment with control peptide had no effects.

HCVser (genotype 1b) = conditions: for HCV copy numbers: at some concentrations (such as 10 and 100 μg/ml); for HCVser replication in human hepatocytes (cellular 5′-UTR RNA): pretreatment 1 h before HCVser-1b, five days post-infection, FIG. 1C
Procedure: FIG. 1. […] (A and B) Concentrations of 1, 10 and 100 μg/ml of DEA, DEA-Q and QET peptides were added into the culture of p5 hADSC for 1 h before exposure to HCV(+) serum (genotype 1b). HLA-A11 restricted, Epstein-Barr virus-specific peptide epitope […] was used as a control (irrelevant) peptide. On day 21 post-infection, the 5′-UTR copy numbers in the supernatant (A) and cell lysates (B) were quantified by qRT-PCR. Data are expressed as mean±SD from 3 experiments. (C) Concentrations of 1, 10 and 100 μg/ml of DEA, DEA-Q and QET peptides were added into the culture of primary human hepatocytes 1 h before exposure to HCVser (genotype 1b). Five days post-infection, the cellular RNAs were extracted for RT-PCR of 5′-UTR. Data are expressed as mean±SD from 3 experiments.
Human hepatocytes were isolated from the non-tumoural part away from the lesion, as described^11. Hepatocytes were left for 3 days to allow attachment onto plastic wells, and subsequently exposed to the HCVser-1b with or without pretreatment with control peptide, DEA, DEA-Q or QET peptide. Five days post-infection, the cellular RNAs were extracted for RT-PCR of 5′-UTR.

Substance: CSSCSSCPLSK (HLA-A11 restricted, Epstein-Barr virus-specific peptide epitope) [control peptide, reference compound]
- viral (5′-UTR) copy numbers in the supernatant [1]: no effects
- viral (5′-UTR) copy numbers in cell lysates [1]: no effects

Substance: DEAQETAVSSHEQ-OH [DEA-Q, DEAQETAVSSHEQ]
- HCV copy numbers (HCVser (genotype 1b)): under detection limit
- HCVser replication in human hepatocytes (cellular 5′-UTR RNA) (HCVser (genotype 1b)): significantly inhibited
- viral (5′-UTR) copy numbers in the supernatant [1]: significantly reduced
- viral (5′-UTR) copy numbers in cell lysates [1]: significantly reduced

Substance: DEAQETAVSSHEQD-OH [DEA, DEAQETAVSSHEQD]
- HCV copy numbers (HCVser (genotype 1b)): under detection limit
- HCVser replication in human hepatocytes (cellular 5′-UTR RNA) (HCVser (genotype 1b)): significantly inhibited
- viral (5′-UTR) copy numbers in the supernatant [1]: significantly reduced
- viral (5′-UTR) copy numbers in cell lysates [1]: significantly reduced

Substance: QETAVSSHEQD-OH [QET, QETAVSSHEQD]
- HCV copy numbers (HCVser (genotype 1b)): under detection limit
- HCVser replication in human hepatocytes (cellular 5′-UTR RNA) (HCVser (genotype 1b)): significantly inhibited
- viral (5′-UTR) copy numbers in the supernatant [1]: significantly reduced
- viral (5′-UTR) copy numbers in cell lysates [1]: significantly reduced
